This assay addresses Phosphodiesterase 4 (Bos taurus). Briefly: In vitro inhibition of bovine smooth muscle phosphodiesterase 4.

Usually IC50 stands for the concentration that gives 50% inhibition. Read a high IC50 as a need for much substance. `COc1ccc(-c2cc(Cc3ccccc3)c(O)nn2)cc1OC` returned a half-inhibitory concentration (IC50) of 8000 nM.
The figure for `COc1ccc(-c2ccc(=O)n(CCCCCCN=C(N)N)n2)cc1OC` is 60000 nM.
In turn, `COc1ccc(-c2cc(CCCc3ccccc3)c(O)nn2)cc1OC` returned a half-maximal inhibitory concentration (IC50) of more than 10000 nM.
In the case of `COc1ccc(-c2ccc(=O)n(CCCCCc3ccccc3)n2)cc1OC` it was 0.9 nM; in that of `COc1ccc(-c2ccc(=O)n(CCCCCCN)n2)cc1OC`, 20 nM.
In the case of `COc1ccc(-c2ccc(=O)n(CCCc3ccccc3)n2)cc1OC`, the IC50 is 20 nM.
`COc1ccc(-c2ccc(=O)n(Cc3ccccc3)n2)cc1OC` yielded an IC50 of 60 nM.
For `COc1ccc(-c2ccc(O)nn2)cc1OC`, the IC50 is recorded as 2000 nM.
`COc1ccc(-c2ccc(=O)n(CCCCCCc3ccccc3)n2)cc1OC` registered a half-inhibitory concentration (IC50) of 80 nM.
